Data reported in patent publication US7019156B2, “Tumor inhibiting gallium compounds” (Faustus Forschungs Cie. Translational Cancer Research GmbH, priority 2001, dated 2006).

Columns and labels:
Type in all cases: cell-based
mammary carcinomas = experiment: Tumor-inhibiting activity, selectivity for tumor types
prostrate carcinomas = experiment: as above
[1] = tested on: macrocellular bronchial carcinomas; experiment: as above
[2] = tested on: stomach carcinoma xenograft; experiment: Tumor-inhibiting activity on xenograft; settings: compared with IC50 <0.003 mg/ml tumor types
melanoma xenograft = experiment: Tumor-inhibiting activity on xenograft; settings: compared with IC50 <0.003 mg/ml tumor types
[3] = tested on: ovarian (OVCAR3) cell line; experiment: Tumor-inhibiting activity on cell line; settings: compared with IC50 <0.003 mg/ml tumor types
[4] = tested on: parvicellular bronchial carcinoma cell line (DMS 114); experiment: Tumor-inhibiting activity on cell line; settings: compared with IC50 <0.003 mg/ml tumor types
[5] = tested on: renal-cell carcinoma xenografts; experiment: Tumor-inhibiting activity on xenografts; settings: one of two renal-cell carcinoma xenografts

Question: Which results are given for “bis(2-acetylpyridine-4,4-dimethyl thiosemicarbazonato-N1, N2,S)gallium(III) tetrachlorogallate(III)”?
Answer: IC50 (mammary carcinomas): < 3 µg/mL; IC50 (prostrate carcinomas): < 3 µg/mL; IC50 [1]: < 3 µg/mL; tumor-inhibiting effect [2]: Comparable effects; tumor-inhibiting effect (melanoma xenograft): Comparable effects; tumor-inhibiting effect [3]: Comparable effects; tumor-inhibiting effect [4]: Comparable effects; tumor-inhibiting activity [5]: above-average activity
